{
  "source": "BindingDB's records for doi:10.1016/s0960-894x(99)00097-9",
  "about": "(University of Minnesota, 1999)",
  "target": "Lactoylglutathione lyase (Saccharomyces cerevisiae)",
  "assay": "Ability to inhibit yeast glyoxalase I enzyme in 0.05 M phosphate buffer, pH 6.6, 30 degree C",
  "data": [
    {"smiles": "NC(CNC(=O)NC(CSCc1ccc(Br)cc1)C(=O)NCC(=O)O)C(=O)O", "note": "(stereo unspecified) [2-Amino-3-{3-[2-(4-bromo-benzylsulfanyl)-1-(carboxymethyl-carbamoyl)-ethyl]-ureido}-propionic acid]", "values": [
      {"measurement": "Ki", "result": 15.5, "unit": "µM"}
    ]}
  ]
}
